Measured values: patent publication US11123426B2, “Use of vista agonists and antagonists to suppress or enhance humoral immunity” (THE TRUSTEES OF DARTMOUTH COLLEGE, priority 2014, dated 2021)

Assays:
Assay type in all cases: cell-based, mice
[1] = tested on: Ly6C+CD11b+ MDSCs; assay: 3H-thymidine proliferation assay: MDSC suppression of B-cell responsiveness, w.t. B6 responder spleen cells stimulated with α-CD40 and IL-4; conditions: FIG. 2A; MDSCs pretreated one hour with 0.8 mM L-NMMA or 80 ug/ml α-VISTA (13F3); R:S 3:1; three days
Protocol: (§1) 3H-Thymidine incorporation proliferation assays. For responder cells, 5×10^5 non-infected spleen cells, which were either non-fractionated or CD19+ purified, were plated into 96 well flat bottom plates along with 1.6×105 (unless otherwise indicated) CD11b+Ly6G+, or CD11b+Ly6C+, enriched suppressor cells obtained from spleens of 5-w.p.i. LP-BM5 mice of the indicated w.t. B6 or B6 knock-out strains. […] For the percent suppression calculation, first, the percent residual responsiveness (R) was calculated as follows: R=(cpm of co-cultured responder cells and experimental suppressor cells)[…](cpm of co-cultured responder cells and control, non-infected suppressor cells)×100%. Standard deviations of the mean were determined for triplicate wells, and were statistically compared by the two-tailed, two sample equal variance, Student T test. […]

[2] = tested on: Ly6C+CD11b+ MDSCs; assay: 3H-thymidine proliferation assay: MDSC suppression of T-cell responsiveness, w.t. B6 responder spleen cells stimulated with Con A; conditions: FIG. 2B, MDSCs pretreated with 0.8 mM L-NMMA or 80 ug/ml α-VISTA (13F3), R:S 3:1, three days
Protocol: as §1

[3] = tested on: monocytic MDSCs (Ly6C+CD11b+); assay: CFSE dilution proliferation assay of CD19+ B cells with monocytic MDSCs; conditions: FIG. 4, w.t. MDSCs, CFSE labeled VISTA−/− responders
Protocol: CFSE dilution proliferation assays. Naïve responder splenocytes were labeled with 5.iM CFSE (Cell trace, CFSE proliferation Kit, Molecular Probes, Eugene, Oreg.) in PBS/0.5% BSA for 10 minutes at 37° C. followed by the addition of cold 10% FBS in RPM1 for 5 minutes on ice. After three cold 10% FCS/RPMI washes, cell cultures were set up in the same manner as that for the 3H-thymidine incorporation proliferation assays described above. On culture day 4, wells were stained with monoclonal antibody (mAb): ct-CD19-PerCP (Biolegend, San Diego, Calif.) and were analyzed on a FACSCalibur flow cytometer (BD bioscience, San Jose, Calif.).
This example relates to the experiments in FIG. 4. In these experiments purified monocytic MDSCs (Ly6C+CD11b+) from 5 week LP-BM5 infected mice of the indicated strains, show differing patterns of suppression of naïve VISTA−/− spleen cell proliferation as assessed by flow cytometry. CFSE labeled VISTA−/− responder cells were cultured for […] in the presence (+) or absence (−) of ct-CD40+ IL-4, and with or without monocytic MDSCs (a) (−); (b) (+) (grey shaded curves); (c) (+), W.t. MDSCs (in black open curves); (d) (+), DNMMA treated W.t. […] MDSCs; Cells from all cultures were stained at the termination of a four day incubation, with ct-CD19 fluorochrome conjugated mAb and CFSE dilution was also assessed by FACS. […]

[4] = tested on: Ly6C+CD11b+ MDSCs; assay: 3H-thymidine proliferation assay: MDSC suppression of B-cell responsiveness with VISTA−/− responder spleen cells (α-CD40 and IL-4); conditions: FIG. 5A
Protocol: as §1
This example relates to the experiments in FIG. 5. […] The % suppression was calculated for both (A) and (B) by cpm responder 3H thymidine incorporation. […]

SMILES: CNC(=N)NCCC[C@H](N)C(=O)O [LNMMA, NG-monomethyl-L-Arginine]
- blocking of MDSC suppression of B-cell responsiveness [1]: ~50%
- blocking of MDSC suppression of T-cell responsiveness [2]: essentially completely dependent on iNOS/NO
- restoration of B-cell proliferation curve towards control B cells stimulated in absence of MDSCs (CFSE) [3]: partially restored
- extent of blocking of VISTA−/− MDSC suppression of B-cell responsiveness ([4]; MDSC of VISTA−/− origin): ~100%
- blocking of w.t. MDSC suppression of B-cell responsiveness ([4]; w.t. MDSC): partially blocked
